Read-outs that look alike come from different tables or passages of the source.
How the values were obtained:
σ1 receptors = target: T1, σ1 receptors (Cavia porcellus, UniProt Q60492); experiment: σ1 receptor competition binding; set-up: species or system guinea pig
T1 construct: Crude P2 membranes were prepared from guinea pig brain, rat brain, or rat liver; from tissue; host or cells: guinea pig brain (crude P2 membranes)

σ2 sites = target: T2, σ2 sites (Rattus norvegicus, UniProt Q5U3Y7); experiment: σ2 receptor competition binding; conditions: [3H]DTG plus dextrallorphan, rat liver
T2 construct: Crude P2 membranes were prepared from guinea pig brain, rat brain, or rat liver; from tissue; host or cells: rat liver (crude P2 membranes)
T2 sequence (Q5U3Y7 1-176): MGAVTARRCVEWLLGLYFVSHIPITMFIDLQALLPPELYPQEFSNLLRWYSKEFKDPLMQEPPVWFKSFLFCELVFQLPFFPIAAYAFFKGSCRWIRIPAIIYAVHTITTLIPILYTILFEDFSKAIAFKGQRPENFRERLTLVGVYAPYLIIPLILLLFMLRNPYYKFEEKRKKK

Dopamine (D2) receptors = target: T3, Dopamine (D2) receptors (Rattus norvegicus, UniProt P61169); experiment: Dopamine D2 receptor competition binding ([3H](−)sulpiride)
T3 construct: from tissue; host or cells: rat brain homogenate / P2 membranes

[1] = target: PCP sites on NMDA receptors (Rattus norvegicus, UniProt P35439); experiment: PCP site competition binding ([3H]TCP)
5-HT2 receptors = 5-HT2 receptors (Rattus norvegicus, UniProt P14842); experiment: 5-HT2 receptor competition binding ([3H]ketanserin)
rat red nucleus = experiment: Acute dystonic reaction after microinjection into the rat red nucleus; assay type: in vivo; conditions: alone and against sigma agonists such as DTG
Male, Swiss Webster mice [2] = experiment: Attenuation of cocaine-induced locomotor activity; assay type: in vivo; conditions: same ligand doses as baseline test, 15 min before cocaine 10 mg/kg i.p.; 30 min; ANOVA
5-HT1 receptors = experiment: 5-HT1 receptor competition binding ([3H]5-HT); conditions: rat brain homogenates
[3] = target: T4, muscarinic cholinergic receptors (Rattus norvegicus, UniProt P08482); experiment: Muscarinic cholinergic receptor competition binding
T4 construct: from tissue; host or cells: rat brain homogenate / P2 membranes
T4 sequence (P08482 1-460): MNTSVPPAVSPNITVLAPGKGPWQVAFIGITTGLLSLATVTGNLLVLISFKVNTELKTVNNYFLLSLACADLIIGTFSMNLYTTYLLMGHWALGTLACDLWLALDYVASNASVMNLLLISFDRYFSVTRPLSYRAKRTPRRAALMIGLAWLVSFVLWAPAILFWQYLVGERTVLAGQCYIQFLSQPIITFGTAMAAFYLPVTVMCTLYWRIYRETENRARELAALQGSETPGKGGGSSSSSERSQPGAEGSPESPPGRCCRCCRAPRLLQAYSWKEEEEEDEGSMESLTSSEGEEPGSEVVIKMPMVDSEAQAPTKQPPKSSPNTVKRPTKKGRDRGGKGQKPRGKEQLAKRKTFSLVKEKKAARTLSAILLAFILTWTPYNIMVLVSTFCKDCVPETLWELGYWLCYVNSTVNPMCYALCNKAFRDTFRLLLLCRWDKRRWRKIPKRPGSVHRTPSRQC

Male, Swiss Webster mice [4] = experiment: Effects of sigma ligands alone on baseline locomotor activity; assay type: in vivo; conditions: 30 min; i.p. mg/kg: BD1008 1, BD1067 5, BD1047 30, LR172 5, BD1018 30, BD1063 30, LR132 30, LR176 10, YZ011 0.1, YZ027 1, YZ029 5
α1-adrenoceptors = experiment: α1-adrenoceptor competition binding ([3H]prazosin); conditions: rat brain homogenates
β-adrenoceptors = experiment: β-adrenoceptor competition binding ([3H]dihydroalprenolol); conditions: rat brain homogenates
α2-adrenoceptors = experiment: α2-adrenoceptor competition binding ([3H]clonidine); conditions: rat brain homogenates
[5] = Table 1, [3H](+)-pentazocine, guinea pig brain, mean±SEM, minimum of two independent assays, read-out: σ1
[6] = Table 4, second series, [3H](+)-pentazocine, guinea pig brain, read-out: σ1
[7] = Table 1, mean±SEM, minimum of two independent assays
[8] = rat brain homogenates, [3H](−)sulpiride, read-out: Dopamine (D2)
[9] = rat brain homogenates, [3H]TCP, read-out: NMDA (PCP)
[10] = rat brain homogenates, [3H]ketanserin, read-out: 5-HT2

T3 sequence (P61169 whole entry): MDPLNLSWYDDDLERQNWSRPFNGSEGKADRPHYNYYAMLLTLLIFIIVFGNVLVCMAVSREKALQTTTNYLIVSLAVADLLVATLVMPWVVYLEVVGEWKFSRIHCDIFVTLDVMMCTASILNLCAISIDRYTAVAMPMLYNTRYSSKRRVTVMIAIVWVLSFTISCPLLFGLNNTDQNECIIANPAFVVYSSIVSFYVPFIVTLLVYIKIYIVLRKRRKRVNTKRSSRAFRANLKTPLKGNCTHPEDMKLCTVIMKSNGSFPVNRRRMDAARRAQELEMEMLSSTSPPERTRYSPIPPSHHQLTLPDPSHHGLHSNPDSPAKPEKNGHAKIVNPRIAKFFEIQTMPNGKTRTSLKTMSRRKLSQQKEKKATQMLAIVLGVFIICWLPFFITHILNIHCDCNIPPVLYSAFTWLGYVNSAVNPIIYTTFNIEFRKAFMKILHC
5-HT2 receptors, sequence (P14842 whole entry): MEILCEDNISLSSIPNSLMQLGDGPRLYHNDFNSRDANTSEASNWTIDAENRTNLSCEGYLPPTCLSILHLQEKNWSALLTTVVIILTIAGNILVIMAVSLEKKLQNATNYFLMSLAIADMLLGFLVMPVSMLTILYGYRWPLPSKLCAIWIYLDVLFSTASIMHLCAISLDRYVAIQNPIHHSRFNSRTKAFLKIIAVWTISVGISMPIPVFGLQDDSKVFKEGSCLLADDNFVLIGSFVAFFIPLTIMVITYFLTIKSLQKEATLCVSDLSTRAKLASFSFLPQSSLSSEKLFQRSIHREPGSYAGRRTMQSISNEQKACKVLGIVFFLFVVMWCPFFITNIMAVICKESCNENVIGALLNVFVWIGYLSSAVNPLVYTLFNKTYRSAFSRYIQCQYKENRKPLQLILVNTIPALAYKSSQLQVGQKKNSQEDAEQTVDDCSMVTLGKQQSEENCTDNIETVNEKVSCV
T1 sequence (Q60492 whole entry): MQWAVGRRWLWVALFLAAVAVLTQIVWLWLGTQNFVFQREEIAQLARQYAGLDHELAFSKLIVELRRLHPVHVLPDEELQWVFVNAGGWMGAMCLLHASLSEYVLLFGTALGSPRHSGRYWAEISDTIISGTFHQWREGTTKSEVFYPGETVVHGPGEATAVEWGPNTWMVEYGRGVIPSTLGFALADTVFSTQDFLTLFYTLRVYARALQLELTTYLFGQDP

| Structure (SMILES) | Ki (σ1 receptors; [5]) | Ki (σ2 sites; [7]) | Ki (σ2 sites; Table 4, second series) | IC50 (Dopamine (D2) receptors; [8]) | IC50 [1, 9] | IC50 (5-HT2 receptors; [10]) | other results |
| --- | --- | --- | --- | --- | --- | --- | --- |
| NCCN1CCN(CCCc2ccccc2)CC1 [YZ-136-2] | 3 ± 0.09 nM | 188 ± 13 nM | 188 ± 13 nM | – | – | – | Ki (σ1 receptors; [6]): 3 ± 0.09 nM |
| COc1ccccc1CC(=O)N(C)CCN1CCCC1 [YZ-008] | – | 3170 ± 144 nM | – | > 10000 nM | > 10000 nM | > 10000 nM | – |
| CN(CCc1ccc(N)cc1)CCN1CCCC1 [YZ-030] | 276 ± 13 nM | 973 ± 77 nM | – | > 10000 nM | > 10000 nM | > 10000 nM | – |
| CCCN(CCc1ccc(Cl)c(Cl)c1)CCN1CCCCC1 [BD1069] | – | 545 ± 139 nM | – | > 10000 nM | > 10000 nM | > 10000 nM | Ki (σ1 receptors; read-out: σ1): 1 ± 0.2 nM; agonist versus antagonist designation (dystonic head postures) (rat red nucleus): variable, partial agonist actions |
| COc1ccc(CC(=O)N2CCN(CCCc3ccccc3)CC2)cc1 [YZ-051-2] | 13 ± 2 nM | 464 ± 34 nM | 464 ± 34 nM | – | – | – | Ki (σ1 receptors; [6]): 13 ± 2 nM |
| COc1ccccc1CCN1CCN(CCCc2ccccc2)CC1 [YZ-184-2] | – | 8 ± 0.2 nM | 8 ± 0.2 nM | – | – | – | – |
| CN(CCc1ccccc1N)CCN1CCCC1 [YZ-032] | 291 ± 38 nM | 640 ± 25 nM | – | > 10000 nM | > 10000 nM | > 10000 nM | – |
| CN(C)CCN(C)CCc1ccc(Cl)c(Cl)c1 [BD1047] | – | – | – | – | – | – | IC50 (Dopamine (D2) receptors): > 10000 nM; cocaine stimulated locomotor activity after pre-treatment (Male, Swiss Webster mice [2]): significant reduction in cocaine stimulated locomotor activity; IC50 (5-HT1 receptors): > 10000 nM; IC50 [3]: 8000 ± 1000 nM; Ki (σ1 receptors): 0.9 ± 0.14 nM; IC50 [1]: > 10000 nM; baseline horizontal locomotor activity versus saline (Male, Swiss Webster mice [4]): no significant difference; IC50 (α1-adrenoceptors): > 10000 nM; IC50 (β-adrenoceptors): 145 ± 100 nM; IC50 (5-HT2 receptors): 4670 ± 2630 nM; IC50 (α2-adrenoceptors): > 10000 nM; agonist versus antagonist designation (dystonic head postures) (rat red nucleus): functional antagonists |
| OC(CCCN1CCN(c2ncc(F)cn2)CC1)c1ccc(F)cc1 (stereo not shown) [BMY14802, reference compound] | – | 51 ± 8 nM | – | – | – | – | – |
| CN1CCN(CCc2ccc(Cl)c(Cl)c2)CC1 [BD1063] | – | – | – | > 10000 nM | > 10000 nM | 2550 ± 2420 nM | cocaine stimulated locomotor activity after pre-treatment (Male, Swiss Webster mice [2]): significant reduction in cocaine stimulated locomotor activity; IC50 (5-HT1 receptors): > 10000 nM; IC50 ([3]; rat brain homogenates, [3H]pirenzepine, read-out: mACh): 9460 ± 750 nM; Ki (σ1 receptors): 9 ± 1 nM; baseline horizontal locomotor activity versus saline (Male, Swiss Webster mice [4]): no significant difference; IC50 (α1-adrenoceptors): > 10000 nM; IC50 (β-adrenoceptors): > 10000 nM; IC50 (α2-adrenoceptors): > 10000 nM; agonist versus antagonist designation (dystonic head postures) (rat red nucleus): functional antagonists |
| CC(C)=CCN1CCC2(C)c3cc(O)ccc3CC1C2C (single isomer, unassigned; (+)) [(+)-Pentazocine, reference compound] | – | – | – | – | – | – | agonist versus antagonist designation (dystonic head postures) (rat red nucleus): agonists |
| COc1cccc(CCN2CCN(C(=O)Cc3cccc(OC)c3)CC2)c1 [YZ-085-2] | – | 12 ± 2 nM | 12 ± 2 nM | – | – | – | – |
| COc1ccc(CCN2CCN(CCCc3ccccc3)CC2)cc1 [YZ-067-2] | 1 ± 0.3 nM | 29 ± 2 nM | 29 ± 2 nM | – | – | – | Ki (σ1 receptors; [6]): 1 ± 0.3 nM |
| CN(CCc1ccccc1[N+](=O)[O-])CCN1CCCC1 [YZ-028] | 8 ± 0.9 nM | 311 ± 4 nM | – | > 10000 nM | > 10000 nM | > 10000 nM | – |

Source: patent US20030171347A1, “Sigma receptor antagonists having anti-cocaine properties and uses thereof” (priority 1998, published 2003)
